Experiment [1] addresses T1, Uridylate kinase (Escherichia coli (strain K12)) (UniProt P0A7E9).
T1 sequence (whole entry): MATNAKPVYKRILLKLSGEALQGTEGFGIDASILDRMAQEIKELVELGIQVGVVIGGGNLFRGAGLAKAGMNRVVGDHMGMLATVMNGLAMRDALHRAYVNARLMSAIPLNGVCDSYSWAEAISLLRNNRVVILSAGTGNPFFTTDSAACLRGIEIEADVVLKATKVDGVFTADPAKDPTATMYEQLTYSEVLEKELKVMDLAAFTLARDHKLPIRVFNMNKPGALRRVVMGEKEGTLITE
The experiment in a line: Inhibition of recombinant Escherichia coli UMP kinase pyrH catalyzed UMP phosphorylation in presence of GTP and ATP incubated for 1 hr by luminescence based assay.

Experiment [2] addresses T2, Nucleoside diphosphate phosphatase ENTPD5 (Homo sapiens) (UniProt O75356).
T2 sequence (whole entry): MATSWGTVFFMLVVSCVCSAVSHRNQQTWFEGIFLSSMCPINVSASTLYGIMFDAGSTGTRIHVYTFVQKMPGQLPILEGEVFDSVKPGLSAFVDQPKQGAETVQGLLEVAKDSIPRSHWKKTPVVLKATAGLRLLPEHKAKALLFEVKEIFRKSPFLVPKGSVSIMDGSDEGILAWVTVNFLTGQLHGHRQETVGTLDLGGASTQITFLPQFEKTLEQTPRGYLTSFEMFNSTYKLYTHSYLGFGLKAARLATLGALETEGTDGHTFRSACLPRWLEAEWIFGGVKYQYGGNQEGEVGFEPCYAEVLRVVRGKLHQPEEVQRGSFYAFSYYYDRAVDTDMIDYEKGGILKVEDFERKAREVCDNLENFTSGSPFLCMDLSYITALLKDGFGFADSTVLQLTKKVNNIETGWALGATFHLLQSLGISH
The experiment in a line: Inhibition of human recombinant ENTPD5 expressed in insect cells assessed as reduction in UDP hydrolysis up to 10 uM incubated for 1 hr in presence of UMP, GTP and ATP by Escherichia coli UMP kinase pyrH catalyzed UMP phosphorylation coupled luciferase assay.

The target in experiment [3] is T2, Nucleoside diphosphate phosphatase ENTPD5 (Homo sapiens). Description: Inhibition of human recombinant ENTPD5 expressed in insect cells assessed as reduction in reduction in UDP hydrolysis by measuring inorganic phosphate release incubated for 1 hr by malachite green based assay.
Experiment [4] has the same target. The experiment in a line: Inhibition of human recombinant ENTPD5 expressed in insect cells assessed as reduction in UDP hydrolysis at 1 uM incubated for 1 hr in presence of UMP, GTP and ATP by Escherichia coli UMP kinase pyrH catalyzed UMP phosphorylation coupled luciferase assay.

Active and inactive are the calls of the source. How the calls were made is not given here.

Turning to `C=CCN(CC(=O)Nc1cc(C)on1)C(=O)CCCC`, the inhibition result in experiment [1] was “inactive”. Besides, the inhibition entry in experiment [2] was “Dose-dependent effect”. The inhibition entry in experiment [3] and in experiment [4] was “Active” throughout.

`Cn1cc(C(c2ccc(O)c(O)c2O)c2cn(C)c3ccccc23)c2ccccc21`: in experiment [1], the inhibition result is “inactive”. The inhibition result in experiment [2] is “Dose-dependent effect”. Further, the inhibition entry in experiment [3] and in experiment [4] was “Active” throughout.

For the compound `O=C1/C(=C\C=C\c2ccco2)SC(=S)N1Cc1ccccc1`, in experiment [1], the inhibition result was “inactive”. For the same compound, the inhibition entry in experiment [2] is “Dose-dependent effect”. For the same compound, the inhibition result in experiment [3] and in experiment [4] was “Active” throughout.

As for `O=C1C=Cc2ccccc2/C1=C/NNC(=O)C(O)(c1ccccc1)c1ccccc1`, in experiment [1], the inhibition result is “inactive”. In addition, the inhibition entry in experiment [2] is “Dose-dependent effect”. The inhibition entry in experiment [3] and in experiment [4] was “Active” in each case.

As to `COc1ccc(N2C(=O)/C(=C/c3cccn3-c3ccc(Br)cc3)C(=O)NC2=S)cc1`, the inhibition entry in experiment [1] is “inactive”. Further, the inhibition result in experiment [2] is “Dose-dependent effect”. In addition, the inhibition entry in experiment [3] and in experiment [4] was “Active” in each case.

On to `COc1ccc(-n2cccc2/C=C2\C(=O)NC(=S)N(c3ccc(Br)cc3)C2=O)cc1`, for which, in experiment [1], the inhibition entry is “inactive”. Besides, in experiment [2], the inhibition result was “Dose-dependent effect”. The inhibition result in experiment [3] and in experiment [4] was “Active” throughout.

With `COc1cccc(/C=c2/sc3n(c2=O)C(c2cccs2)C2=C(N=3)c3ccccc3CC2)c1O` (stereo unspecified), in experiment [1], the inhibition entry was “inactive”. For the same compound, in experiment [2], the inhibition result is “Dose-dependent effect”. The inhibition entry in experiment [3] and in experiment [4] was “Active” in each case.

For the compound `COc1cccc(C(c2cc(C(C)(C)C)c(O)c(C(C)(C)C)c2)N2CCOCC2)c1OC` (stereo unspecified), in experiment [1], the inhibition result was “inactive”. Besides, the inhibition entry in experiment [2] is “Dose-dependent effect”. Further, the inhibition result in experiment [3] and in experiment [4] was “Active” in each case.

Take `COc1ccc(-n2cccc2/C=C2\C(=O)NC(=S)N(c3ccc(C)c(C)c3)C2=O)cc1`: in experiment [1], the inhibition entry was “inactive”. Besides, the inhibition entry in experiment [2] is “Dose-dependent effect”. The inhibition entry in experiment [3] and in experiment [4] was “Active” in each case.

Consider `O=C1/C(=C/c2cc([N+](=O)[O-])cc(Br)c2O)SC(=S)N1c1ccc([N+](=O)[O-])cc1`, for which the inhibition entry in experiment [1] was “inactive”. Also, in experiment [2], the inhibition result was “Dose-dependent effect”. Also, the inhibition entry in experiment [3] and in experiment [4] was “Active” each time.

Turning to `COc1ccc(OC)c(-c2cn3c(CCN(Cc4ccco4)S(=O)(=O)c4ccc5ccccc5c4)csc3n2)c1`, in experiment [1], the inhibition entry was “inactive”. Moreover, in experiment [2], the inhibition entry is “Dose-dependent effect”. Besides, the inhibition entry in experiment [3] and in experiment [4] was “Active” each time.

Consider `O=C1NC(=O)N(c2ccc(Cl)cc2)C(=O)/C1=C/c1cccn1-c1ccccc1`, for which the inhibition result in experiment [1] was “inactive”. For the same compound, in experiment [2], the inhibition result was “Dose-dependent effect”. Further, the inhibition entry in experiment [3] and in experiment [4] was “Active” in each case.

With `O=C(NCCNc1ccc([N+](=O)[O-])cc1)c1ccc(CSc2nnnn2-c2ccccc2)cc1`, the inhibition entry in experiment [1] is “inactive”. Moreover, in experiment [2], the inhibition entry is “Dose-dependent effect”. In addition, the inhibition result in experiment [3] and in experiment [4] was “Active” each time.

`Cc1ccc(C2=C/C(=C/c3ccc(C)c([N+](=O)[O-])c3)C(=O)O2)c(C)c1`: the inhibition result in experiment [1] was “inactive”. The inhibition entry in experiment [2] is “Dose-dependent effect”. Also, the inhibition entry in experiment [3] and in experiment [4] was “Active” throughout.

(Values after ChEMBL document CHEMBL4418495, “Entpd5 inhibitors” (2012).)
